Patent US9901549B2, “Method for treating vaginal dryness by administering transient receptor potential cation channel subfamily M member 8 (TRPM8) receptor agonists” (UNIVERSIDAD MIGUEL HERNÁNDEZ DE ELCHE, priority 2010, dated 2018)
Like-named read-outs stand apart in the source and are kept apart here.

Tests used:
TRPM8 channels [1] = target: T1, TRPM8 channels (Homo sapiens, UniProt Q7Z2W7); conditions: FL; data from Behrendt et al., 2004; cited from earlier work
[2] = system: cold-sensitive nerve terminals of the mouse cornea; experiment: Nerve terminal impulse (NTI) activity recorded in vitro from cold-sensitive nerve terminals of the cornea
Protocol: To define functionally the thermal sensitivity and encoding capacity of intact cold-sensitive nerve terminals, nerve terminal impulse (NTI) activity from the cornea of wild-type mice eyes was recorded ‘in vitro’ (Brock, J. A., et al., 1998. J. Physiol 512:211-217).
J. Neurosci. 26:12512-12525, Jordt, S. E. et al. 2004. Nature 427:260-265).

[3] = system: cold-sensitive nerve terminals of the mouse cornea; experiment: as above; remark: listed apart in the source
TRPM8 channels [4] = target: T1, TRPM8 channels; conditions: CI; data from Bodding et al., 2007; cited from earlier work
TRPM8 channels [5] = target: T1, TRPM8 channels; conditions: EP, cited from earlier work
[6] = system: eyes of TRPM8(−/−) and wild type mice; experiment: Tear flow (phenol red thread) after topical application to the eye; assay type: in vivo, mouse; conditions: capsaicin 1 μM, AITC 500 μM
Protocol: FIG. 4. Dependence of tear secretion rate on corneal temperature. a. […] Shaded and filled columns represent tearing rate in animals at mean neutral (28.4° C.) or hot temperature (42.5° C.), respectively. The number of measures of successive columns is 35, 11, 23, 9 and 6 observations **p<0.01, ***p<0.001 Mann-Whitney test). b. Increase in tearing rate measured in wild type animals (black columns) and TRPM8−/−(grey columns) elicited by application during 60 s, of a filter paper soaked in capsaicin 1 μM (n=12 and 15) or 500 μM allyl-isothyocyanate. […] Measurements of tear secretion were performed 1 minute after removing the paper with the drug. Statistically significant differences were found with respect to baseline lacrimation, using the Wilcoxon test (*p<0.05, ***p<0.001). c. Mean tearing rate expressed as the wetted length value of the phenol red thread, measured in the eyes of 11 human volunteers at environment temperatures of 18° C., 25° C. and 43° C. that lead to corneal surface temperatures of 32.4±0.4° C.; 34.2±0.1° C. and 36.0±0.2° C. respectively.
Next, it was reasoned that if tear production is associated to the neural activity of cold thermoreceptor fibers, basal tear flow should be reduced in TRPM8(−/−) mice, in which spontaneous activity is absent.

native TRPM8 channel [7] = target: T2, native TRPM8 channel (Homo sapiens, UniProt Q7Z2W7); conditions: CI, cited from earlier work
native TRPM8 channel [8] = target: T2, native TRPM8 channel; conditions: EP, cited from earlier work
native TRPM8 channel [9] = target: T2, native TRPM8 channel; conditions: read-out: IC50 menthol; SF; 20 μM menthol at 22° C.; Ortar et al. 2010; cited from earlier work
native TRPM8 channel [10] = target: T2, native TRPM8 channel; conditions: read-out: IC50 menthol; 100 μM menthol; FL; Behrendt et al. 2004; cited from earlier work
[11] = cold, Malkia et al. 2007, read-out: IC50 cold
[12] = cold, +80 mV, Malkia et al. 2007, read-out: IC50 cold
[13] = read-out: IC50 menthol, 100 μM menthol, −70 mV, Weil 2005

T1 sequence (Q7Z2W7 whole entry): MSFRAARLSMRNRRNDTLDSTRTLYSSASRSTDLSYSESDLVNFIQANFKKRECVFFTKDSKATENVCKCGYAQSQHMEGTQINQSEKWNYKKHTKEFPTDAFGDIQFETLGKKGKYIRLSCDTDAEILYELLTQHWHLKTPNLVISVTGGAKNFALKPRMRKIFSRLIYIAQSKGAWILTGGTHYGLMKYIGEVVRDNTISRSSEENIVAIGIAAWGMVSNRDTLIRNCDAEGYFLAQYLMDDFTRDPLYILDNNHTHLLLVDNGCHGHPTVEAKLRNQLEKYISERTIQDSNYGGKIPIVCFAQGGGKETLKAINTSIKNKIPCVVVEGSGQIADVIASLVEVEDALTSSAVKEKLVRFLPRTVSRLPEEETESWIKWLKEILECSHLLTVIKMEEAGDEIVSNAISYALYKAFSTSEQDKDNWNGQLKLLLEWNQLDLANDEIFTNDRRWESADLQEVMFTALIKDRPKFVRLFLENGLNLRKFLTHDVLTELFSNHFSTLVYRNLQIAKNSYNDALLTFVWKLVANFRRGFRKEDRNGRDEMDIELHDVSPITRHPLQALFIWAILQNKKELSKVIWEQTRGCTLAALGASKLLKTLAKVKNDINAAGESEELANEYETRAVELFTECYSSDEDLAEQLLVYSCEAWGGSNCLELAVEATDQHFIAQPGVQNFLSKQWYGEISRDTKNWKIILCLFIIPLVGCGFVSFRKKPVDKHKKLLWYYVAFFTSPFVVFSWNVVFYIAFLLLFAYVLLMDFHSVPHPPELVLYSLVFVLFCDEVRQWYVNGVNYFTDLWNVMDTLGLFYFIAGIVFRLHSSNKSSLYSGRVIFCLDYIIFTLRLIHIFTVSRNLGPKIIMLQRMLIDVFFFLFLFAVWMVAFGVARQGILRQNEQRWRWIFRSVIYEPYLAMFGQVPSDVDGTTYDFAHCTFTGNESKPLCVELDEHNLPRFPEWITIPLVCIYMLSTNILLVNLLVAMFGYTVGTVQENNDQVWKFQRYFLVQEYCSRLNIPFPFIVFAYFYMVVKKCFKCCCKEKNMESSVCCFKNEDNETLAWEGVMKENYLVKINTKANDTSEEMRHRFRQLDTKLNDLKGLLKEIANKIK
T2 sequence (Q7Z2W7 whole entry): as above

## CC(C)[C@@H]1CC[C@@H](C)CC12OCC(CO)O2 (mixture of isomers) [Frescolat MGA]
TRPM8 channels [1]
  EC50: 4.8 ± 1.1 µM

## CC(C)[C@@H]1CC[C@@H](C)C[C@H]1OCC(O)CO (mixture of isomers) [Cooling Agent 10]
TRPM8 channels [1]
  EC50: 6 ± 2.2 µM

## CC(C)[C@@H]1CC[C@@H](C)C[C@H]1O (relative stereo) [Menthol]
[2]; during perfusion with menthol 50 μM, 5% before treatment
  percentage of terminals with a bursting firing pattern at 34° C.: 44%
[2]; menthol 50 μM, control 23.8±0.4
  temperature of silencing during cooling ramps: 25.2±0.4 °C
[2]; menthol 50 μM, control 26.7±0.5, n=44
  temperature at which peak frequency is reached during cooling ramps: 28.6±0.5 °C
[2]; menthol 50 μM, from 3.4±0.3 before, n=44
  spontaneous activity: 18.4±1.4 impulses/s
[2]; menthol 50 μM, n=44
  tested endings with increased spontaneous activity: 98%
[3]; 50 μM menthol perfusion, TRPM8(−/−) corneas, n=6
  trigger frequency at basal temperature of 34° C. or during cooling ramps: no increase
[3]; menthol 50 μM, TRPM8(+/−) mice, significantly less than in TRPM8(+/+)
  trigger frequency in basal temperature, cold threshold and peak frequency: enhanced

## COc1ccc(NC(=O)[C@@H]2C[C@H](C)CC[C@H]2C(C)C)cc1 (stereo in doubt) [WS-12, 2-isopropyl-5-methyl-cyclohexanecarboxylic acid (4-methoxyphenyl)-amide]
TRPM8 channels [4]
  EC50: 0.193 µM
TRPM8 channels [5]; data from Beck et al., 2007
  EC50: 0.039 µM
TRPM8 channels [5]; data from Bodding et al., 2007
  EC50: 0.68 µM

## C=CCN=C=S [AITC, allyl-isothiocyanate]
[2]; AITC 100 μM, 28 cold-sensitive nerve endings tested
  effect on spontaneous or cold-evoked activity: failed to modify the spontaneous or cold-evoked activity in 24 of them
[2]; AITC 100 μM, of 28 endings tested
  nerve endings with significant increase in trigger frequency at basal temperature: four
[6]
  tear flow: significantly increased

## CC(C)(C)c1ccc(NC(=O)N2CCN(c3ncccc3Cl)CC2)cc1 [BCTC, N-(4-tert-butyl-phenyl)-4-(3-chloropyridin-2-yl) tetrahydropyrazine-1(2H)-carboxamide]
[2]; BCTC 10 μM perfusion during 90 min
  spontaneous activity and trigger frequency of cold- and menthol-evoked discharges: decreased gradually and almost silenced
[2]; BCTC 10 μM, TRPA1(−/−) mice
  effects of BCTC on nerve ending activity in TRPA1(−/−) mice: also observed
[2]; after BCTC 10 μM removal
  decline in activity upon removal of the drug: reversed partially
Native TRPM8 channel [7]; [11]
  IC50: 0.68 ± 0.06 µM
Native TRPM8 channel [8]; [12]
  IC50: 0.54 ± 0.04 µM
Native TRPM8 channel [8]; read-out: IC50 menthol, 100 μM menthol, +80 mV, modified by Madrid 2006
  IC50: 0.34 ± 0.04 µM

## CCOC(=O)C(C)NC(=O)C1C[C@H](C)CC[C@H]1C(C)C (some centres unmarked) [CPS-369]
TRPM8 channels [4]
  EC50: 3.6 µM

## C[C@@H]1CN(c2ncccc2Cl)CCN1C(=O)Nc1ccc(C(F)(F)F)cc1 [CTPC, (2R)-4-(3-chloro-2-pyridinyl)-2-methyl-N-[4-(trifluoromethyl)phenyl]-1-pyperazine-carboxamide]
Native TRPM8 channel [8]; [13]
  IC50: 0.131 ± 0.014 µM

## Oc1cc2c(cc1O)CN(C(=S)NCCc1ccc(Cl)cc1)CCC2 [Capsazepine, N-[2-(4-chlorophenyl)ethyl]-1,3,4,5-tetrahydro-7,8-dihydroxy-2H-2-benzazepine-2-carbothioamide]
Native TRPM8 channel [7]; cold, Malkia et al. 2009, read-out: IC50 cold
  IC50: 12 ± 2 µM

## Clc1ccccc1C(c1ccccc1)(c1ccccc1)n1ccnc1 [Clotrimazole, 1-[(2-chlorophenyl)diphenylmethyl]-1H-imidazol]
Native TRPM8 channel [8]; read-out: IC50 menthol, 100 μM menthol, +50 mV, Meseguer et al. 2008
  IC50: 1.2 µM

## Nc1ccncc1 [Compound 4-AP, 4-aminopyridine]
[2]; 4-AP 100 μM
  cold threshold of the endings: no parallel changes
[2]; 4-AP 100 μM, n=9
  mean peak frequency of cold responses depressed: 39±6 % of the control value
[2]; 4-AP 100 μM, nine studied units
  units with significantly increased spontaneous activity: three out of nine

## CC12CCC(CC1)C(C)(C)O2 [Eucalyptol]
TRPM8 channels [1]
  EC50: 7700 ± 2000 µM
TRPM8 channels [5]; data from McKemy et al., 2002
  EC50: 3400 ± 400 µM

## CC(O)C(=O)O[C@@H]1C[C@H](C)CC[C@H]1C(C)C (some centres unmarked) [Frescolat ML]
TRPM8 channels [1]
  EC50: 3.3 ± 1.5 µM

## CC(CC=O)CCCC(C)(C)O (centres unmarked) [Hydroxyl-citronellal]
TRPM8 channels [1]
  EC50: 19600 ± 2200 µM

## C=C[C@@](C)(O)CCC=C(C)C [Linalool, Linallol]
TRPM8 channels [1]
  EC50: 6700 ± 2000 µM

## CC(C)[C@@H]1CC[C@@H](C)C[C@H]1NC(=O)c1ccc(-c2ccccc2)cc1 [MAD1d, N-[(1R,2S,5R)-2-Isopropyl-5-methylcyclohexyl]biphenyl-4-carboxamide]
Native TRPM8 channel [9]
  IC50: 0.02 ± 0.0024 µM

## CC1CCC(C(C)(C)O)C(O)C1 (centres unmarked) [PMD-38, p-menthane-3,8-diol]
TRPM8 channels [1]
  EC50: 31 ± 1.1 µM

## c1cnc2c(c1)ccc1cccnc12 [Phenanthroline]
Native TRPM8 channel [7]; [11]
  IC50: 100 ± 20 µM
Native TRPM8 channel [8]; [12]
  IC50: 180 ± 20 µM

## CCN(CCNC(=O)Nc1ccccc1Br)c1cccc(C)c1 [SB-452533, N-(2-bhromophenyl)-N′-(2-[ethyl(3-methylphenyl)amino]ethyl)urea]
Native TRPM8 channel [8]; [13]
  IC50: 0.571 ± 0.077 µM

## COc1ccc(CCCOC(Cn2ccnc2)c2ccc(OC)cc2)cc1 (centres unmarked) [SKF96365]
Native TRPM8 channel [7]; [11]
  IC50: 1 ± 0.2 µM
Native TRPM8 channel [7]; read-out: IC50 menthol, 100 μM menthol, modified by Madrid 2006
  IC50: 3 ± 1 µM
Native TRPM8 channel [8]; [12]
  IC50: 0.8 ± 0.1 µM

## CCNC(=O)C1CC(C)CCC1C(C)C (centres unmarked) [WS-3, N-ethyl-p-menthane-3-carboxamide]
TRPM8 channels [1]
  EC50: 3.7 ± 1.7 µM

## CC1CCC(C(C)C)C(C(=O)NC(C)(C)CO)C1 (centres unmarked) [WS-11, 2-isopropyl-5-methyl-cyclohexanecarboxylic acid (2-hydroxy-1,1-dimethyl-ethyl)-amide]
TRPM8 channels [5]; data from Beck et al., 2007
  EC50: 6.25 µM

## CC1CCC(C(C)C)C(C(=O)NC(C)(C)C)C1 (centres unmarked) [WS-14, 2-isopropyl-5-methyl-cyclohexanecarboxylic acid tert-butylamide]
TRPM8 channels [5]; data from Beck et al., 2007
  EC50: 21.2 µM

## CC1CCC(C(C)C)C(C(=O)OCC(O)CO)C1 (centres unmarked) [WS-30, 2-isopropyl-5-methyl-cyclohexanecarboxylic acid ester 2,3-dihydroxy-propyl]
TRPM8 channels [4]
  EC50: 5.6 µM

## CCCCCCCP(=O)(C(C)CC)C(C)CC (centres unmarked) [WS-148, 1-(di-sec-butyl-phosphinoyl)-heptane]
TRPM8 channels [4]
  EC50: 4.1 µM

## COc1cc(CNC(=O)CCCC/C=C/C(C)C)ccc1O [capsaicin]
[2]; 100 nM capsaicin, wild-type mice
  cold-sensitive endings that responded: 65%
[6]
  tear flow: significantly increased
[3]; capsaicin 100 nM, TRPM8(−/−) corneas, six units tested
  impulse discharge evoked in active units: evoked a few impulses in two endings (5 and 8 impulses, respectively) and a vigorous, discharge lasting more than 30 s in another

## CC(C)(C)c1ccc(NC(=S)N2CCN(c3ncccc3Cl)CC2)cc1 [thio-BCTC, N-(4-tert-butyl-phenyl)-4-(3-chloropyridin-2-yl) tetrahydropyrazine-1(2H)-(thio)carboxamide]
Native TRPM8 channel [10]
  IC50: 3.5 ± 1.1 µM
